Consider 16 molecules from patent US5804576A, “Derivatives of 5-androsten-17-ones and 5-androstan-17-ones” (Research Corporation Technologies, Inc., priority 1986, dated 1998).

In data set [1] the test system is rat uterus; mouse seminal vesicle plus prostate. The data set can be described thus: Sex steroid hormonal or anti-hormonal activity (estrogenic, anti-estrogenic, androgenic, anti-androgenic). To be noted: in vivo. On the procedure: Female CD rats, 26-27 days old, were injected subcutaneously for 3 days with one of the compounds of the present invention at 60 mg/kg in propylene glycol. Controls received propylene glycol alone. On the 4th day the rats were killed and the uteri were dissected out and weighed. The results are given below:
(a) Male A/J mice (5 weeks old) were obtained from the Jackson Laboratory and were housed in polycarbonate cages (5 mice/cage) in animal quarters maintained at 24°[…] C. with 12 hours of light and 12 hours of darkness each day. One week after arrival, the mice were placed on a chow diet containing one of the test compounds of the present invention at 0.36%. After 4 weeks of treatment, the above mice were killed, and the seminal vesicles and prostate glands were dissected out and weighed.

Data set [2] deals with TPA (Tumor Promoter) Stimulation of Mouse Epidermal DNA. As to the kind of experiment: Inhibition of TPA stimulation of mouse epidermal DNA synthesis (3H-thymidine incorporation), oral. It counts as in vivo, mouse (ICR male). To be noted: oral; for Inhibition of TPA Effect on Epidermis Following Oral Administration, relative to DHEA: Table 3, DHEA = 1×. The text has this:
Synthesis rate by orally administered steroids.
The inhibition of tumor promoter stimulation of mouse epidermal DNA synthesis rate by steroids may also contribute to cancer preventive activity. The following assay is used:
ICR male mice (7-9 weeks old) were shaved on the back 1-2 days before use. Only mice showing no hair regrowth were used. Animals were orally intubated with a particular steroid suspended by homogenization in sesame oil or with sesame oil alone (controls). One hour later TPA (10 μg in 0.2 ml of acetone) or acetone vehicle was applied topically to the shaved skin. Twenty hours later, mice were injected i.p. with 60 μCi of ^3 H-thymidine 20 minutes before sacrifice. The animals were killed by cervical dislocation and the residual hair was removed with a depilatory agent. Epidermal scrapings were prepared according to the procedures of Hennings et al. (Cancer Res. 28, 53, 1968), homogenized in distilled water at 4° C., and the macromolecules precipitated with 0.4N trichloroacetic acid (TCA). Following 6 washes with absolute ethanol at room temperature, the nucleic acids were hydrolyzed with 0.5N TCA at 70° C. for 5 minutes. The hydrolysate (0.2 ml aliquots) were counted in an Intertechnique scintillation counter and assayed for DNA by the diphenylamine reaction.
The data are expressed as counts per minute (cpm) of tritium per μg of DNA.
A similar oral dose-response experiment with compound 16 and DHEA was performed.
Both of the above tests, i.e., the inhibition of mammalian glucose-6-phosphate dehydrogenase (G6PDH) and the inhibition of tumor promoter (TPA) stimulation of ^3 H-thymidine incorporation in mouse epidermis are recognized as indicators of cancer prophylactic activity. The following Table compares the efficacy of representative compounds of the present invention in these two tests with that of DHEA:
Male ICR mice were orally intubated with steroid suspended in sesame oil (0.5 ml/mouse) at the indicated dose. Mice not receiving steroid were given sesame oil alone. One hour later mice received topical application of TPA and 20 hours later the rate of ^3 H-thymidine incorporation into the epidermis was determined as described in Table 4.
Male ICR mice were orally intubated with steroid suspended in sesame oil (0.5 ml/mouse) at the indicated dose. Mice not receiving steroid were given sesame oil alone. One hour later mice received topical application of TPA, and 20 hours later the rate of ^3 H-thymidine incorporation into the epidermis was determined as described in Table 4.
In general terms: Dividing cells build labelled thymidine or BrdU into new DNA.

The target in data set [3] is T1, purified bovine adrenal G6PDH (Bos taurus, UniProt F1MMK2).
T1 construct: full-length, wild type, no tag
As to the kind of experiment: Inhibition of purified bovine adrenal G6PDH. As to conditions: for inhibition at 1 µM / inhibition at 10 µM: read-out: Percent Inhibition (G6PDH); for G6PDH Inhibition relative to DHEA: Table 3, DHEA = 1×. It counts as biochemical. The text has this:
The compounds listed below are screened as inhibitors of purified bovine adrenal G6PDH activity as one predictor of cancer preventive action. The assay for testing the inhibition of purified bovine adrenal G6PDH is according to the procedure by Oertel, G. W. and Rebelein, I. in Biochem. Biophys. Acta, 184, 459-460 (1969). The results are given below in Table I:
Both of the above tests, i.e., the inhibition of mammalian glucose-6-phosphate dehydrogenase (G6PDH) and the inhibition of tumor promoter (TPA) stimulation of ^3 H-thymidine incorporation in mouse epidermis are recognized as indicators of cancer prophylactic activity. The following Table compares the efficacy of representative compounds of the present invention in these two tests with that of DHEA: […]

The nature of data set [4]: Anti-obesity test (body weight, food consumption). It counts as in vivo, mouse (male A/J). As to conditions: 400 mg/kg repeated (DHEA); cancer preventive dosages (19, 20). On the procedure:
Male A/J mice (5 weeks old) were obtained from the Jackson Laboratory and were housed in polycarbonate cages (5 mice/cage) in animal quarters maintained at 24°±1° C. with 12 hours of light and 12 hours of darkness each day. One week after arrival, the mice were placed on a chow diet containing varying concentrations of DHEA or other steroid. Animals were weighed weekly; food consumption was determined weekly by subtracting the amount of food remaining in the cage from the amount added.
Male A/J (5 weeks old) were obtained from the Jackson Laboratory and were housed in polycarbonate cages (5 mice/cage) in animal quarters maintained at 24°±1° C. with 12 hours of light and 12 hours of darkness each day. One week after arrival, the mice were placed on a diet containing either DHEA, 19, or without steroid. Animals were weighed weekly. The concentration of DHEA or 19 used in the food was 0.54%.
Male A/J mice (5 weeks old) were obtained from the Jackson Laboratory and were housed in polycarbonate cages (5 mice/cage) in animal quarters maintained at 24°±1° C. with 12 hours of light and 12 hours of darkness each day. One week after arrival, the mice were placed on a show diet containing DHEA, 16, or 21 at 0.36%. Animals were weighed weekly.

Data set [5] has as its system [3H]DMBA binding to skin DNA. As to the kind of experiment: [3H]DMBA binding to skin DNA, oral steroid. The data set is classed as in vivo, mouse (male A/J). As to conditions: 12 hours. As to the method: Male A/J mice were orally intubated with steroid suspended in sesame oil (0.5 ml/mouse) at the indicated dose. Mice not receiving steroid were given sesame oil alone. Food restricted mice received approximately 60% of food of Ad libitum fed for two weeks. One hour after oral intubation, topical [^3 H]DMBA was applied to the skin, and the amount bound to DNA was determined 12 hours later as described in Table 4.
Male A/J mice were orally intubated with steroid suspended in sesame oil (0.5 ml/mouse) at the indicated dose. Mice not receiving steroid were given sesame oil alone. One hour after oral intubation, topical [^3 H]DMBA was applied to the skin, and the amount bound to DNA was determined 12 hours later as described in Table 4.

The next data set deals with rat uterus. The data set can be described thus: Uterotrophic test for estrogenic activity, oral. The data set is classed as in vivo. As to conditions: 14 μg/kg oral; 3 days; n = 6. The text has this: Uterotrophic Test for Estrogenic Activity. Compound 16 vs. DHEA and Estradiol-benzoate. Compounds Given by Oral Administration.
Twenty-two day old rats were obtained from Charles River Laboratories. Animals were used at 29 days of age. Test steroids were suspended by homogenization in sesame oil. Rats were orally intubated at 1-2 P.M. for 3 days with a test steroid in sesame oil or with sesame oil alone (control). On the 4th day the animals were killed and the uteri were removed and weighed.

The subject of a further data set is C57BL/KsJ-db/db mice. As to the kind of experiment: Anti-hyperglycemic activity (blood glucose). It counts as in vivo, mouse (C57BL/KsJ-db/db). As to conditions: Table 15; DHEA = 1×. As to the method: C57BL/KsJ-db/db 8 week old female mice were obtained and housed in polycarbonate cages in animal quarters maintained at 24° C. with 12 h of light and 12 h of darkness each day.
Mice were placed on a control chow or a chow diet containing either 0.4% DHEA or 0.2% of compound 16.
For determination of blood glucose levels, mice were bled from the orbital sinus using a heparinized capillary tube. 0.2 ml of blood was added to 1.8 ml of water to hemolyze the blood and glucose concentration was determined using the glucose oxidase assay.

T1 sequence (F1MMK2 31-70): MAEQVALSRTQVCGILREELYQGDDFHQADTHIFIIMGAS
T1 sequence (F1MMK2 101-575): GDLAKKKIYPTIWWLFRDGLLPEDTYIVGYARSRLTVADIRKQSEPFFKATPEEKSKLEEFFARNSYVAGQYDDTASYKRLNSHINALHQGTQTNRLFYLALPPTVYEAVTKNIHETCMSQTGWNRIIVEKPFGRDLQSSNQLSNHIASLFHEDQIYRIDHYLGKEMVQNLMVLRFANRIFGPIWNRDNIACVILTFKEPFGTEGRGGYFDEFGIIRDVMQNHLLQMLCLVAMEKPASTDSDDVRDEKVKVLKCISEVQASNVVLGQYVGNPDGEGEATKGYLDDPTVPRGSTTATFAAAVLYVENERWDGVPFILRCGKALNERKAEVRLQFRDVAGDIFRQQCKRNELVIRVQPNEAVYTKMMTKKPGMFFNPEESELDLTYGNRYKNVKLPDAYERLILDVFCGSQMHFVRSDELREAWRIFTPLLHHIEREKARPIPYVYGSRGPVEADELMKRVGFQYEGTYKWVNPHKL

Take `C[C@]12CCC(Cl)CC1=CC[C@@H]1[C@@H]2CC[C@]2(C)C(=O)CC[C@@H]12` (stereo partly drawn) [3 chloro-5-androstene-17-one]: the “estrogenic, anti-estrogenic, androgenic, anti-androgenic activity (in words)” value in data set [1] was “without any demonstrable estrogenic, androgenic, anti-androgenic or anti-estrogenic activity”.

The term inhibition denotes the relative decrease from the control value, in per cent. Take `C[C@H]1CC[C@@]2(C)C(=CC[C@@H]3[C@@H]2CC[C@]2(C)C(=O)[C@H](F)C[C@@H]32)C1` [Compound 20]: the “TPA stimulation in 3H-thymidine incorporation (in words)” value in data set [2] (single administration) was “to a degree comparable to that produced by food restriction at doses well below 400 mg/kg”. For the same molecule, in data set [3] (Conc. 1 μm), the inhibition at 1 µM stood at 55%. The inhibition at 10 µM in data set [3] (Conc. 10 μm) turned out to be 46%. In addition, the “anti-weight effect (in words)” value in data set [4] was “do not produce an anti-weight effect”. Further, the “SPECIFIC ACTIVITY ([3H]DMBA bound to skin DNA)” value stood at 48.4 ± 2.6 cpm/ug DNA in data set [5] (100 mg/kg p.o.) and 43.7 ± 1.5 cpm/ug DNA in data set [5] (200 mg/kg p.o.).

As to `C[C@H]1CC[C@@]2(C)C(=CC[C@@H]3[C@@H]2CC[C@]2(C)C(=O)[C@](C)(F)C[C@@H]32)C1` [Compound 22], in data set [3] (Conc. 1 μm), the inhibition at 1 µM was determined as 53%. Further, the inhibition at 10 µM in data set [3] (Conc. 10 μm) was 65%.

Turning to `C[C@]12CC[C@@H]3c4ccc(OC(=O)c5ccccc5)cc4CC[C@H]3[C@@H]1CC[C@@H]2O` [Estradiol-benzoate, reference compound], the “Mean Uterine Weight” value in the data set on rat uterus stood at 244 ± 44 Mgs.

Consider `C[C@]12CC[C@H](O)C[C@@H]1CC[C@@H]1[C@@H]2CC[C@]2(C)C(=O)CC[C@@H]12` [drawing 85], for which the “Inhibition of TPA Effect on Epidermis Following Oral Administration, relative to DHEA” value (shortened to “Inhibition of TPA Effect … relative to DHEA”) in data set [2] was ~ 1 ×. The “G6PDH Inhibition relative to DHEA” value in data set [3] was ~ 1.5 ×.

With `C[C@]12CCCC[C@@H]1CC[C@@H]1[C@@H]2CC[C@]2(C)C(=O)CC[C@@H]12` [drawing 86], the “Inhibition of TPA Effect … relative to DHEA” value in data set [2] is reported as ~ 1.5 ×. Further, the “G6PDH Inhibition relative to DHEA” value in data set [3] is above 2 ×.

On to `C[C@H]1CC[C@@]2(C)C(=CC[C@@H]3[C@@H]2CC[C@]2(C)C(=O)CC[C@@H]32)C1` [drawing 87], for which, in data set [2], the “Inhibition of TPA Effect … relative to DHEA” value was ~ 3 ×. Further, the “G6PDH Inhibition relative to DHEA” value in data set [3] is on record as ~ 1 ×.

As to `C[C@H]1CC[C@@]2(C)C(=CC[C@@H]3[C@@H]2CC[C@]2(C)C(=O)[C@H](C)C[C@@H]32)C1` [drawing 88], the “G6PDH Inhibition relative to DHEA” value in data set [3] was ~ 0.5 ×.

`C[C@H]1CC[C@@]2(C)C(=CC[C@@H]3[C@@H]2CC[C@]2(C)C(=O)[C@H](O)C[C@@H]32)C1` [drawing 89]: the “Inhibition of TPA Effect … relative to DHEA” value in data set [2] is reported as 5 ×. In addition, the “G6PDH Inhibition relative to DHEA” value in data set [3] is reported as ~ 2 ×.

With `C[C@]12CC[C@H](Cl)CC1=CC[C@@H]1[C@@H]2CC[C@]2(C)C(=O)CC[C@@H]12` [drawing 90], the “Inhibition of TPA Effect … relative to DHEA” value in data set [2] was 1-1.5 ×. The “G6PDH Inhibition relative to DHEA” value in data set [3] was 0.5 ×.

In the case of `CC[C@H]1CC[C@@]2(C)C(=CC[C@@H]3[C@@H]2CC[C@]2(C)C(=O)CC[C@@H]32)C1` [drawing 91], in data set [3], the “G6PDH Inhibition relative to DHEA” value is on record as ~ 1.5 ×.

With `CCCC[C@H]1CC[C@@]2(C)C(=CC[C@@H]3[C@@H]2CC[C@]2(C)C(=O)CC[C@@H]32)C1` [drawing 92], the “G6PDH Inhibition relative to DHEA” value in data set [3] is recorded as ~ 2 ×.

As for `C[C@H]1CC[C@@]2(C)C(=CC[C@@H]3[C@@H]2CC[C@]2(C)C(=O)[C@H](F)C[C@@H]32)C1` [drawing 94], the “Inhibition of TPA Effect … relative to DHEA” value in data set [2] is above 10 ×. Also, in data set [3], the “G6PDH Inhibition relative to DHEA” value is 5-10 ×.

For `C[C@H]1CC[C@@]2(C)C(=CC[C@@H]3[C@@H]2CC[C@]2(C)C(=O)CC[C@@H]32)C1` [drawing 102], the “Anti-diabetic Activity relative to DHEA” value in the data set on C57BL/KsJ-db/db mice is given as 3 ×.

`C[C@]12CC[C@H](Cl)CC1=CC[C@@H]1[C@@H]2CC[C@]2(C)C(=O)CC[C@@H]12` [drawing 103]: in the data set on C57BL/KsJ-db/db mice, the “Anti-diabetic Activity relative to DHEA” value came to 1 ×.

With “Androst-5-en-17-one [Compound 15, reference compound]”, the figures for the “Percent Inhibition (G6PDH)” value in data set [3] (Conc. 0.1 μm), in data set [3] (Conc. 1 μm) and in data set [3] (Conc. 10 μm) were 26%, 40% and 46%, respectively.
